# From patent EP3760204A1, “MEDICAMENT FOR PREVENTION OR TREATMENT OF HUNTINGTON'S DISEASE” (Medizinische Universität Graz, priority 2019, dated 2021)
# How the values were obtained:
# [1] = tested on: alpha-1-antitrypsin; assay: Pathological alpha-1-antitrypsin (Z-allele) accumulation in transfected HeLa cells; type: cell-based, human; conditions: HeLa cells transfected with PXR/RXR and Z-allele of alpha-1-antitrypsin, 50µM, 24h; Figure 10
# Protocol: (§1) Western blot: Protein lysate was generated by homogenization (Magnalyzer, Roche) of tissue or cell pellet in homogenization buffer with protease and phosphatase inhibitors (Halt tablets, Invitrogen). After homogenization, lysates were sonicated 2x for 10" each. Lysates were then centrifuged for 10 min at 4°C and the supernatant was subjected to BCA protein estimation (Thermo Fisher). Equal amounts of lysate were loaded to self-made acrylamide gels. After separation, the protein was transferred to a PVDF membrane with semi-dry transfer.
# [2] = tested on: HepG2 cells; assay: Autophagic flux assay (LC3 II Western blot, with or without chloroquine) in HepG2 cells; type: cell-based, human; conditions: 50µM hyperforin vs ethanol vehicle, Figure 6A
# Protocol: as §1
# [3] = tested on: HepG2 cells; assay: pGFP-RFP-LC3 autophagic flux assay in transfected HepG2 cells; conditions: fed condition, 50µM, Figures 3C, 6C
# [4] = tested on: TFEB; assay: LC3 II induction after TFEB knockdown (siTFEB) in HepG2 cells; type: cell-based, human; conditions: 50µM, +/- chloroquine, Figure 9
# Protocol: as §1
substance,measurement,setting,value
hyperforin,pathological A1AT accumulation,[1],robustly decreases
same,LC3 II protein,[2],induces
same,autophagic flux (GFP-RFP-LC3 dots),[3],induced autophagic flux
same,LC3 II in the presence of TFEB,[4]; non-targeting control (NT) HepG2 cells,induces
same,LC3 II induction in siTFEB cells,[4]; siTFEB HepG2 cells,blunted
